Data reported in patent publication US8563236B2, “Mutational profiles in HIV-1 reverse transcriptase correlated with phenotypic drug resistance” (priority 1999, dated 2013).

Legend:
Format in all cases: cell-based, HIV-1
wild-type HXB2-D virus = assay: MT-4 cell CPE protection assay, wild-type control virus
Experimental: (§1) Mutations were created in HIV-1 RT by site-directed mutagenesis and the mutant RT was then transferred into the HXB2-D wild-type virus background. The specific mutations created in this background are indicated. The nucleoside susceptibility of mutant viruses (fold increase in IC50 value relative to wild-type HXB2-D virus control) was assessed as described in ‘Methods’.
(§2) MT-4 cells (Harada S., et al, Science 229: 563-566 (1985).) were co-transfected with pol gene PCR fragments and the protease-RT deleted HIV-1 molecular clone, pGEM3ΔPRT, as described. See Hertogs K., et al., Antimicrob. Agents Chemother. 42: 269-276 (1998). […] Phenotypic susceptibility to nucleoside analogues was determined using an MT-4 cell viral cytopathic effect (CPE) protection assay as described. Id. Fold resistance values were derived by dividing the mean IC50 for a patient's recombinant virus by the mean IC50 for wild-type control virus (strain HXB2-D).
(§3) Mutations in the RT coding region were created by site-directed mutagenesis of a wild-type HXB2-D EcoRI-PstI restriction enzyme fragment, encompassing the HIV-1 pol gene and cloned into pGEM3 (Promega). Single and multiple nucleotide changes were introduced into RT using the ExSite mutagenesis kit (Strategene). All mutant clones were verified by DNA sequence analysis of the entire RT. PCR fragments were prepared from the mutated clones and the altered RT coding regions were transferred into the HIV-1 HXB2-D genetic background by homologous recombination as described above. The susceptibility of these recombinant viruses to nucleoside analogues was subsequently determined by the MT-4 cell CPE protection assay. Id.

[1] = system: HXB2-D virus with RT 210W, 215Y, 62V; assay: MT-4 cell CPE protection assay, site-directed mutant virus
Experimental: as §1, §2, §3

[2] = system: HXB2-D virus with RT 210W, 215Y; assay: as above
Experimental: as §1, §2, §3

[3] = system: HXB2-D virus with RT 69S-[S-S], 210W, 215Y, 62V; assay: as above
Experimental: as §1, §2, §3

[4] = system: HXB2-D virus with RT 69S-[S-S], 210W, 215Y; assay: as above
Experimental: as §1, §2, §3

[5] = system: HXB2-D virus with RT 69S-[S-S]; assay: as above
Experimental: as §1, §2, §3

[6] = system: mutants carrying mutation 184V; assay: Drug susceptibility assay, site-directed mutants (group statement); conditions: high resistance caused by mutation 184V
Experimental: Phenotypic analysis was performed using the recombinant virus assay. See Kellam, P., and B. A. Larder. Antimicrob Agents Chemother 38:23-30 (1994); Hertogs, K., et al., Agents Chemother. 42:269-276 (1998); Pauwels, R., et al., Abstracts of the 2nd International Workshop on HIV Drug Resistance and Treatment Strategies, Abstr. 51. Lake Maggiore, Italy (1998). Briefly, protease (PR) and reverse transcriptase (RT) coding sequences were amplified from patient-derived viral RNA with HIV-1 specific primers. After homologous recombination of amplicons into a PR-RT deleted proviral clone, the resulting recombinant viruses were harvested, titrated and used for in vitro susceptibility testing to antiretroviral drugs. The results of this analysis were expressed as fold-resistance values, reflecting the fold-increase in mean IC50 (μM) of a particular drug when tested with patient-derived recombinant virus isolates, relative to the mean IC50 (μM) of the same drug obtained when tested with a reference wild-type virus isolate (IIIB/LAI).
For the modeling studies, mutations were generated in the RT gene of HXB2, a wild-type laboratory HIV-1 strain, using the QuikChange^J Site-Directed Mutagenesis Kit, Stratagene^7, Stratagene Cloning systems, La Jolla, Calif., USA.
Two of them carried both 44D/A and 181I, while all but one (SDM23) carried ZDV resistance-correlated mutations. […]

[7] = system: variants with the 69S-[S-S] insert plus AZT resistance mutations; assay: MT-4 cell CPE protection assay, site-directed mutant viruses (group statement)
Experimental: as §2
as §3, with “Id. […]” for “Id.”

[8] = system: codon 151 cluster viruses
Source text: (§4) FIG. 2: Nucleoside analogue susceptibility of MDR patient-derived recombinant HIV variants. Recombinant viruses were produced from patient plasma samples as described in Example 2 and tested for susceptibility to (a) d4T, (b) ddC and (c) ddI. […] Error bars indicate standard errors. Note that the total number (n=310) is higher than the 302 MDR samples described because a small minority were 69D/N and 75M double mutants and are represented in both groups.
as §2
(§5) From this analysis, 302 samples were identified with four-fold or greater increases in IC50 (relative to a wild-type control virus) to at least four of these inhibitors. Thus, a substantial number of MDR viruses were present in the sample population.
(§6) Genotypic analysis was performed on all 892 samples by dideoxy-nucleotide sequencing. […] A comparison of the incidence of specific RT mutations in MDR samples versus non-MDR in the population surveyed is shown in FIG. 1. This analysis highlighted the incidence of the codon 151 mutational cluster in the MDR group. In addition, a novel family of amino acid insertions and rearrangements between codons 67 and 70 were also prevalent in the MDR group. These two patterns of mutations were correlated with high-level phenotypic multi-nucleoside resistance (FIG. 2), 27 samples having the codon 151 cluster and 45 samples having insertions and rearrangements (typically a T69S substitution, followed by insertion of two amino acids).

[9] = system: codon 69 insertion mutants
Source text: as §4, §2, §5, §6

[10] = system: samples with AZT and 3TC resistance mutations plus T69A/N or V175M; assay: Recombinant virus assay, MDR patient-derived recombinant HIV variants
Source text: as §4, §2, §5
Genotypic analysis was performed on all 892 samples by dideoxy-nucleotide sequencing. […]

[11] = system: HXB2-D virus with T69A or V75M in a background of AZT mutations; assay: MT-4 cell CPE protection assay, site-directed mutant viruses
Experimental: as §2, §3
To investigate the significance of the observed mutational patterns correlated with MDR virus we constructed a series of viruses by site-directed mutagenesis with specific changes in a defined genetic background (HXB2-D). […] In addition, the potential role of A62V, a substitution also frequently correlated with the insertions was investigated by adding this mutation to a background of 69S-[S-S] plus 210W/215Y.

[12] = Human immunodeficiency virus 1, MT4, mean values

SMILES	IC50 (wild-type HXB2-D virus; [12])	Fold increase in IC50 ([1]; {})	Fold increase in IC50 ([2]; {})	Fold increase in IC50 ([3]; {})	Fold increase in IC50 ([4]; {})	Fold increase in IC50 ([5]; {})	resistance (fold) [6]	susceptibility [7]	IC50 (wild-type HXB2-D virus; mean values)	Fold increase in IC50 ([1]; mutant genotype 210W, 215Y, 62V, relative to wild-type HXB2-D, mean of two determinations)	Fold increase in IC50 ([2]; mutant genotype 210W, 215Y, relative to wild-type HXB2-D, mean of two determinations)	Fold increase in IC50 ([3]; mutant genotype 69S-[S-S], 210W, 215Y, 62V, relative to wild-type HXB2-D, mean of two determinations)	Fold increase in IC50 ([4]; mutant genotype 69S-[S-S], 210W, 215Y, relative to wild-type HXB2-D, mean of two determinations)	Fold increase in IC50 ([5]; mutant genotype 69S-[S-S], relative to wild-type HXB2-D, mean of two determinations)	mean fold increase in IC50 (resistance) [8]	mean fold increase in IC50 (resistance) [9]	level of resistance [10]	resistance conferred [11]
Nc1ccn([C@@H]2CS[C@H](CO)O2)c(=O)n1 [3TC, lamivudine]	1.67 µM	1.3 fold	3.8 fold	15 fold	20 fold	6.2 fold	> 62 fold	–	–	–	–	–	–	–	–	–	–	–
Cc1cn([C@H]2C[C@H](N=[N+]=[N-])[C@@H](CO)O2)c(=O)[nH]c1=O [AZT, zidovudine]	–	–	–	–	–	–	–	decreased susceptibility	–	–	–	–	–	–	–	–	–	–
Nc1nc(NC2CC2)c2ncn(C3C=CC(CO)C3)c2n1 (stereo not drawn) [compound 1592, 4-[(2-amino-6-cyclopropyl-amino)-9H-purin-9-yl]-2-cyclopentene-1-methanol]	–	–	–	–	–	–	–	decreased susceptibility	2.9 µM	0.7 fold	1.5 fold	5.4 fold	4.6 fold	2.6 fold	–	–	–	–
Cc1cn([C@H]2C=C[C@@H](CO)O2)c(=O)[nH]c1=O [d4T, stavudine]	2.39 µM	0.7 fold	1.1 fold	5.2 fold	4.8 fold	2.3 fold	–	–	–	–	–	–	–	–	> 10 fold	> 10 fold	modest levels of resistance	little or no resistance
Nc1ccn([C@H]2CC[C@@H](CO)O2)c(=O)n1 [ddC, zalcitabine]	1.41 µM	0.8 fold	1.2 fold	2.7 fold	4.2 fold	2.1 fold	–	–	–	–	–	–	–	–	> 10 fold	> 10 fold	modest levels of resistance	little or no resistance
O=c1[nH]cnc2c1ncn2[C@H]1CC[C@@H](CO)O1 [ddI, didanosine]	4.6 µM	0.5 fold	1.2 fold	1.8 fold	2.1 fold	1.7 fold	–	–	–	–	–	–	–	–	–	–	–	little or no resistance
